According to PubChem BioAssay (NCI):
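The compound was tested at five concentrations on cells cultured in 96-well plates, with a 48-hour exposure period. At the GI50, growth is halved. Definition used: TGI = concentration required for complete inhibition of growth.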

Tests used:
Assay in all cases: NCI-60 cell line screen, 48 h
[1] = tested on: NCI-H226 lung
[2] = tested on: A498 renal
[3] = tested on: DU-145 prostate
[4] = tested on: HCT-15 colon
[5] = tested on: OVCAR-3 ovarian
[6] = tested on: K-562 leukemia
[7] = tested on: SK-MEL-5 melanoma
[8] = tested on: SNB-75 CNS
[9] = tested on: PC-3 prostate
[10] = tested on: HCC-2998 colon
[11] = tested on: HS 578T breast
[12] = tested on: OVCAR-5 ovarian
[13] = tested on: NCI-H23 lung
[14] = tested on: TK-10 renal
[15] = tested on: NCI-H460 lung
[16] = tested on: SN12C renal
[17] = tested on: UACC-62 melanoma
[18] = tested on: NCI/ADR-RES ovarian
[19] = tested on: HT29 colon
[20] = tested on: BT-549 breast
[21] = tested on: SF-268 CNS
[22] = tested on: HCT-116 colon
[23] = tested on: SW-620 colon
[24] = tested on: HOP-62 NSCLC
[25] = tested on: RXF 393 renal
[26] = tested on: MCF7 breast
[27] = tested on: UO-31 renal
[28] = tested on: COLO 205 colon
[29] = tested on: MALME-3M melanoma
[30] = tested on: M14 melanoma
[31] = tested on: SK-OV-3 ovarian
[32] = tested on: SK-MEL-2 melanoma
[33] = tested on: NCI-H522 lung
[34] = tested on: SR leukemia
[35] = tested on: MDA-MB-435
[36] = tested on: 786-0 renal
[37] = tested on: SNB-19 CNS
[38] = tested on: RPMI-8226 leukemia
[39] = tested on: CCRF-CEM leukemia
[40] = tested on: SF-295 CNS
[41] = tested on: OVCAR-8 ovarian
[42] = tested on: SF-539 CNS
[43] = tested on: ACHN renal
[44] = tested on: UACC-257 melanoma
[45] = tested on: MDA-MB-231 breast
[46] = tested on: MOLT-4 leukemia
[47] = tested on: HL-60(TB) leukemia
[48] = tested on: KM12 colon
[49] = tested on: IGROV1 ovarian
[50] = tested on: OVCAR-4 ovarian
[51] = tested on: U251 CNS
[52] = tested on: A549 NSCLC
[53] = tested on: HOP-92 NSCLC
[54] = tested on: SK-MEL-28 melanoma
[55] = tested on: T-47D breast
[56] = tested on: CAKI-1 renal

COc1ccc(C2CC(=O)Nc3c2c(C)nn3-c2nc3ccccc3[nH]2)cc1 (configuration not stated)
GI50 [1]: 2.58 µM
TGI [1]: 7.9 µM
GI50 [2]: 1.89 µM
TGI [2]: 5.46 µM
GI50 [3]: 3.64 µM
TGI [3]: 16.8 µM
GI50 [4]: 3.49 µM
TGI [4]: > 100 µM
GI50 [5]: 2.54 µM
TGI [5]: 5.72 µM
GI50 [6]: 2.9 µM
TGI [6]: > 35.5 µM
GI50 [7]: 1.82 µM
TGI [7]: 3.71 µM
GI50 [8]: 2.36 µM
TGI [8]: 9.12 µM
GI50 [9]: 3.21 µM
TGI [9]: 48.9 µM
GI50 [10]: 5.67 µM
TGI [10]: > 58.5 µM
GI50 [11]: 3.19 µM
TGI [11]: 17.7 µM
GI50 [12]: 4.52 µM
TGI [12]: > 70.1 µM
GI50 [13]: 2.57 µM
TGI [13]: 6.83 µM
GI50 [14]: 4.08 µM
TGI [14]: > 38.9 µM
GI50 [15]: 2.39 µM
TGI [15]: 5.89 µM
GI50 [16]: 3.28 µM
TGI [16]: > 53.7 µM
GI50 [17]: 1.94 µM
TGI [17]: 4.16 µM
GI50 [18]: 5.61 µM
TGI [18]: > 100 µM
GI50 [19]: 3.47 µM
TGI [19]: > 30.4 µM
GI50 [20]: 3.33 µM
TGI [20]: 20 µM
GI50 [21]: 3.86 µM
TGI [21]: 97.7 µM
GI50 [22]: 2.12 µM
TGI [22]: 4.38 µM
GI50 [23]: 3.33 µM
TGI [23]: 20.6 µM
GI50 [24]: 2.56 µM
TGI [24]: 6.55 µM
GI50 [25]: 2.63 µM
TGI [25]: 8.92 µM
GI50 [26]: 3.11 µM
TGI [26]: > 34 µM
GI50 [27]: 3.19 µM
TGI [27]: 15.8 µM
GI50 [28]: 3.59 µM
TGI [28]: 14.7 µM
GI50 [29]: 2.22 µM
TGI [29]: 8.04 µM
GI50 [30]: 2.54 µM
TGI [30]: 7.12 µM
GI50 [31]: 3.23 µM
TGI [31]: 7.83 µM
GI50 [32]: 3.45 µM
TGI [32]: 9.43 µM
GI50 [33]: 2.67 µM
TGI [33]: 7.15 µM
GI50 [34]: 2.96 µM
TGI [34]: > 25.1 µM
GI50 [35]: 2.55 µM
TGI [35]: 6.84 µM
GI50 [36]: 3.82 µM
TGI [36]: > 33.3 µM
GI50 [37]: 4.72 µM
TGI [37]: > 100 µM
GI50 [38]: 2.41 µM
TGI [38]: 5.48 µM
GI50 [39]: 2.11 µM
TGI [39]: > 27.9 µM
GI50 [40]: 1.7 µM
TGI [40]: 4.19 µM
GI50 [41]: 3.76 µM
TGI [41]: > 100 µM
GI50 [42]: 2.16 µM
TGI [42]: 4.94 µM
GI50 [43]: 3.55 µM
TGI [43]: > 57.4 µM
GI50 [44]: 2.65 µM
TGI [44]: 8.21 µM
GI50 [45]: 2.25 µM
TGI [45]: 5.3 µM
GI50 [46]: 0.0589 µM
TGI [46]: 0.326 µM
GI50 [47]: 3.13 µM
TGI [47]: 9.83 µM
GI50 [48]: 2.72 µM
TGI [48]: 7.09 µM
GI50 [49]: 2.38 µM
TGI [49]: 5.26 µM
GI50 [50]: 3.71 µM
TGI [50]: > 59.1 µM
GI50 [51]: 2.56 µM
TGI [51]: 7.04 µM
GI50 [52]: 3.04 µM
TGI [52]: 15.1 µM
GI50 [53]: 2.34 µM
TGI [53]: 6.72 µM
GI50 [54]: 3.92 µM
TGI [54]: > 55.9 µM
GI50 [55]: 3.92 µM
TGI [55]: > 41.9 µM
GI50 [56]: 2.96 µM
TGI [56]: 9.12 µM
